One assay concerns MDA-MB-231. The assay can be described thus: Cytotoxicity against human MDA-MB-231 cells after 72 hrs by MTS assay. In kind it is functional, cell-based. Particulars: MDA-MB-231, 72 h. A general note: Formazan colour is commonly taken as a measure of viable cells.
Assay [1] addresses Ubiquitin-conjugating enzyme E2 B (Homo sapiens) (UniProt P63146). The assay can be described thus: Inhibition of human recombinant Rad6B assessed as suppression of Rad6B conjugation to ubiquitin at 25 nM pre-incubated for 1 hr by Western blot analysis.
The nature of assay [2]: Cytotoxicity against human OV90 cells after 72 hrs by MTS assay. Format: functional, cell-based. To be noted: OV-90, 72 h.
Assay [3] in a line: Cytotoxicity against human H1299 cells after 72 hrs by MTS assay. Particulars: NCI-H1299, 72 h. In kind it is functional, cell-based.
In the next assay the test system is A2780. The assay is described as follows: Cytotoxicity against human A2780 cells after 72 hrs by MTS assay. Format: functional, cell-based. Particulars: A2780, 72 h.
A further assay has as its system HT-29. The assay is described as follows: Cytotoxicity against human HT-29 cells after 72 hrs by MTS assay. In kind it is functional, cell-based. To be noted: HT-29, 72 h.
Another assay concerns A549. The assay is described as follows: Cytotoxicity against human A549 cells after 72 hrs by MTS assay. Particulars: A549, 72 h. In kind it is functional, cell-based.
The next assay deals with MCF7. The assay can be described thus: Cytotoxicity against human MCF7 cells after 72 hrs by MTS assay. Format: functional, cell-based. To be noted: MCF7, 72 h.
The target of assay [4] is Ubiquitin-conjugating enzyme E2 B (Homo sapiens) (UniProt P63146). The assay can be described thus: Inhibition of human recombinant Rad6B assessed as suppression of H2A substrate ubiquitination at 25 nM pre-incubated for 1 hr before H2A addition by Western blot analysis. (In general: A western blot detects proteins with antibodies after separation by electrophoresis.)
Chain of Ubiquitin-conjugating enzyme E2 B (Homo sapiens) (P63146 whole entry): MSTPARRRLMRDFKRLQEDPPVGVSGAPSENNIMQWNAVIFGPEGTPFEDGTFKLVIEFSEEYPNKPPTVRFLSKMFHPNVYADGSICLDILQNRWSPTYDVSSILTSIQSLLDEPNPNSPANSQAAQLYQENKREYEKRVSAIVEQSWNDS

Activity calls are given as the source filed them. The rule behind the calls is not given here.

Usually IC50 stands for the concentration that gives 50% inhibition. Lower therefore signals inhibition by little substance.

As to `NNC(=O)c1nc(N)nc(Nc2ccc(Cl)cc2)n1`, the IC50 amounted to 24.6 µM in the assay on MDA-MB-231; 85 µM in assay [2]; 30 µM in assay [3]; 36.6 µM in the assay on A2780; 4.6 µM with HT-29; 7.5 µM in the assay on A549. Further, the midpoint of inhibition in the assay with MCF7, the IC50, lay at 8.8 µM. Moreover, in assay [1], the inhibition result is “Active”.
Regarding `COc1ccc(Nc2nc(N)nc(C(=O)NN)n2)cc1`, the IC50 with MDA-MB-231 was determined as 7.6 µM; in assay [2], 80 µM; in assay [3], 65 µM; in the assay with A2780, 14.7 µM; in the assay with HT-29 it was 5.4 µM; in the assay with A549, 5.2 µM. For the same compound, half-maximal inhibition in the assay on MCF7 (IC50) was put at 6.2 µM. Moreover, the inhibition result in [1] was “Active”.
As to `O=C(NNc1ccccc1)c1nc(Nc2ccc(Cl)cc2)nc(Nc2ccc(Cl)cc2)n1`, the IC50 was found to be 3.5 µM in the assay with MDA-MB-231; 60 µM in assay [2]; 15 µM in assay [3]; 8.2 µM in the assay with A2780; 4.1 µM with HT-29; 7.8 µM in the assay with A549. The same compound had an IC50 in the assay with MCF7 of 4.2 µM. Also, the inhibition result in assay [1] and in assay [4] was “Active” throughout.
As for `COc1ccccc1Nc1nc(Nc2ccccc2OC)nc(C(=O)NNc2ccccc2)n1`, the IC50 in the assay on MDA-MB-231 worked out at 3.9 µM; in [2], 10 µM; in assay [3] it was 26 µM; in the assay with A2780, 5 µM; in the assay with HT-29, 8.9 µM; with A549 it was 6.9 µM. The IC50 in the assay on MCF7 was 7.2 µM. For the same compound, the inhibition entry in assay [1] is “Active”.
For `Cc1ccc(Nc2nc(Nc3ccc(C)cc3)nc(C(=O)NNc3ccccc3)n2)cc1`, the IC50 is 3.5 µM in the assay on MDA-MB-231; 5 µM in assay [2]; 22 µM in [3]; 3.6 µM in the assay with A2780; 5.2 µM with HT-29; 11.6 µM in the assay with A549. The IC50 with MCF7 amounted to 4.2 µM. For the same compound, the inhibition result in assay [1] and in assay [4] was “Active” each time.
Consider `O=C(NNc1ccccc1)c1nc(Nc2ccccc2)nc(Nc2ccccc2)n1`, for which the IC50 amounted to 2.5 µM in the assay with MDA-MB-231; 8 µM in [2]; 11 µM in assay [3]; 7.1 µM in the assay on A2780; 9.5 µM in the assay with HT-29; 14.6 µM in the assay with A549. In the assay with MCF7, this compound showed an IC50 of 6 µM. Moreover, the inhibition result in assay [1] and in [4] was “Active” each time.
Take `COc1ccccc1Nc1nc(N)nc(C(=O)NN)n1`: the IC50 was 15.7 µM in the assay on MDA-MB-231; 90 µM in assay [2]; 50 µM in [3]; 5.6 µM with A2780; 8.6 µM in the assay on HT-29; 7.5 µM in the assay on A549. The midpoint of inhibition in the assay with MCF7, the IC50, lay at 11.8 µM. In addition, the inhibition entry in assay [1] was “Active”.
Take `Nc1nc(COC(=O)c2ccc([N+](=O)[O-])cc2)nc(Nc2ccccc2)n1`: the IC50 amounted to 4.6 µM with MDA-MB-231; 60 µM in assay [2]; 45 µM in assay [3]; 7.8 µM with A2780; 8.3 µM in the assay on HT-29; 7.2 µM in the assay with A549. In the assay with MCF7, this compound came in with an IC50 of 5 µM. In addition, the inhibition result in assay [1] and in assay [4] was “Active” each time.
`Cc1ccc(Nc2nc(N)nc(C(=O)NN)n2)cc1`: the IC50 stood at 12.7 µM in the assay with MDA-MB-231; 60 µM in assay [2]; 40 µM in assay [3]; 5.5 µM in the assay on A2780; 4.5 µM with HT-29; 9.3 µM in the assay on A549. The compound also had an IC50 in the assay with MCF7 of 16 µM. Further, in assay [1], the inhibition result was “Active”.
For `NNC(=O)c1nc(N)nc(Nc2ccccc2)n1`, the IC50 with MDA-MB-231 came out at 2.6 µM; in assay [2], 75 µM; in assay [3], 65 µM; with A2780, 7.3 µM; in the assay with HT-29, 3.3 µM; in the assay with A549, 7.8 µM. For the same compound, the IC50 in the assay with MCF7 was 5.9 µM. Besides, the inhibition result in assay [1] is “Active”.
On to `COc1ccc(Nc2nc(Nc3ccc(OC)cc3)nc(C(=O)NNc3ccccc3)n2)cc1`, for which the IC50 in the assay on MDA-MB-231 was determined as 4.2 µM; in [2], 12 µM; in assay [3], 5 µM; in the assay with A2780, 6.3 µM; in the assay with HT-29 it was 5.8 µM; in the assay with A549, 10.8 µM. Besides, half-maximal inhibition in the assay with MCF7 (IC50) was put at 7.2 µM. Further, the inhibition result in assay [1] and in assay [4] was “Active” in each case.

The values are drawn from ChEMBL document CHEMBL3784990, “Synthesis and in vitro anticancer evaluation of some 4,6-diamino-1,3,5-triazine-2-carbohydrazides as Rad6 ubiquitin conjugating enzyme inhibitors” (Bioorg Med Chem Lett, 2016).
